In patent publication US10406158B2, “Methods and compositions for treating abnormal cell growth” (Verastem, Inc., priority 2014, dated 2019):

Tests used:
[1] = test system: breast cancer cells (MDA-MB-231); test: Matrigel on-top (MoT) 3D culture, CellTiter-Glo cell viability, 9x9 combination matrix; assay type: cell-based; settings: MEK inhibitor in combination with FAK inhibitor VS-6063, 96 hours incubation, compared with Bliss, HSA and Loewe models
Protocol: (§1) Cell Lines: Cancer cell lines were purchased from American Type Culture Collection (Manassas, VA) and cultured under ATCC recommended standard culture conditions. Mero-41 (mesothelioma cell line) were purchased from Sigma-Aldrich (St. Louis, MO) and cultured under ECACC recommended standard culture conditions. […] TOV-21G (ovarian clear cell carcinoma cell line) were cultured under ECACC recommended standard culture conditions. Growth media for all cell lines were supplemented with penicillin (100 units/ml)/streptomycin (100 μg/ml).
(§2) Compound were used at the top concentration 10 uM in a 2-fold dilution. Paclitaxel was dosed at the top concentration 1 uM in a 3-fold dilution.
(§3) A ‘Matrigel on-top’ (MoT) assay where cells were propagated in a 3-dimentional culture was used. Cells were plated above a dense base layer of Matrigel (BD Biosciences, Franklin Lakes, N.J.), diluted 1:1 with culture medium. Single cell preparations were resuspended in dilute Matrigel (1:50 in culture medium) and seeded to cover the Matrigel base layer. This ensured that ovarian cancer cells were surrounded with extracellular matrix (ECM) components, of which collagen and laminin are the major Matrigel constituents. Cells were seeded in a density of 500 cells per well in 384-well black Ultra-low attachment plates with clear bottom (Corning, Tewksbury MA). […] Cell survival/proliferation was assessed by CellTiter-Glo® Luminescent Cell Viability Assay (Promega, Madison, Wis.).
(§4) Combination effects were evaluated by comparing the averaged viability/inhibition to three different null reference models derived from the single agent activities.
(§5) The expected additivity effect is the statistical expectation for the combined effect from independent inhibitors: Mathematically, Bliss (FU)=FUA1 X FUA2, where FUA1 and FUA2 are the unaffected fraction when treated with compounds Al and A2, respectively.

[2] = test system: mesothelioma cells (Mero-41); test: as above; assay type: cell-based; settings: MEK inhibitor in combination with FAK inhibitor VS-6063, 96 hours incubation, compared with Bliss, HSA and Loewe models
Protocol: as §1, §2, §3, §4, §5

| Compound | combination effect on cell viability [1] | combination effect on cell viability [2] |
| --- | --- | --- |
| cobimetinib | more than additive effect | more than additive effect |
| trametinib | more than additive effect | more than additive effect |
| O=C(NC[C@H](O)CO)c1ccncc1Nc1ccc(I)cc1F [pimasertib] | more than additive effect | more than additive effect |
| Cn1cnc2c(F)c(Nc3ccc(Br)cc3Cl)c(C(=O)NOCCO)cc21 [AZD-6244] |  | more than additive effect |
| O=C(NOCCO)c1ccc2cncn2c1Nc1ccc(I)cc1F [GDC-0623] | more than additive effect | more than additive effect |
